Source: the NIST ThermoML archive (doi:10.1016/j.fluid.2016.09.021)
Numbers after ± are expanded uncertainties.

Settings: Liquid, Vibrating tube method

In the case of CCCCCCC [heptane], the mass density (393 K, 2100 kPa) is reported as 596.5 ± 2 kg/m3, the mass density (393 K, 3000 kPa) is reported as 598.7 ± 2 kg/m3 and the mass density (393 K, 4000 kPa) is reported as 600.8 ± 2 kg/m3. It also gave a mass density (393 K, 5000 kPa) of 602.8 ± 2 kg/m3, a mass density (393 K, 10000 kPa) of 612.2 ± 2 kg/m3 and a mass density (393 K, 20000 kPa) of 627.8 ± 2.1 kg/m3. For the same compound, the mass density (393 K, 30000 kPa) was 640.2 ± 2.1 kg/m3, the mass density (393 K, 40000 kPa) was 650.8 ± 2.1 kg/m3 and the mass density (393 K, 49900 kPa) was 659.9 ± 2.2 kg/m3. For the same compound, the mass density (393 K, 59900 kPa) was 668.3 ± 2.2 kg/m3, the mass density (393 K, 69900 kPa) was 675.9 ± 2.2 kg/m3 and the mass density (393 K, 79900 kPa) was 682.9 ± 2.3 kg/m3. It also gave a mass density (393 K, 89900 kPa) of 689.5 ± 2.3 kg/m3, a mass density (393 K, 99900 kPa) of 695.7 ± 2.4 kg/m3 and a mass density (393 K, 109900 kPa) of 701.4 ± 2.4 kg/m3. The mass density (393 K, 119900 kPa) was 706.8 ± 2.5 kg/m3, the mass density (393 K, 129900 kPa) was 712.1 ± 2.5 kg/m3 and the mass density (393 K, 134900 kPa) was 714.7 ± 2.6 kg/m3. The mass density (393 K, 137400 kPa) was 715.8 ± 2.6 kg/m3, the mass density (413 K, 2100 kPa) was 574.1 ± 2 kg/m3 and the mass density (413 K, 3000 kPa) was 577 ± 2 kg/m3. It also gave a mass density (413 K, 4000 kPa) of 579.6 ± 2 kg/m3, a mass density (413 K, 5000 kPa) of 582.1 ± 2 kg/m3 and a mass density (413 K, 10000 kPa) of 593.6 ± 2 kg/m3. It also gave a mass density (413 K, 20000 kPa) of 611.9 ± 2.1 kg/m3, a mass density (413 K, 30000 kPa) of 626 ± 2.1 kg/m3 and a mass density (413 K, 40000 kPa) of 637.6 ± 2.1 kg/m3. It also gave a mass density (413 K, 49900 kPa) of 647.8 ± 2.2 kg/m3, a mass density (413 K, 59900 kPa) of 656.9 ± 2.2 kg/m3 and a mass density (413 K, 69900 kPa) of 664.7 ± 2.3 kg/m3. The mass density (413 K, 79900 kPa) was 672.4 ± 2.3 kg/m3, the mass density (413 K, 89900 kPa) was 679.3 ± 2.4 kg/m3 and the mass density (413 K, 99900 kPa) was 685.8 ± 2.4 kg/m3. It also gave a mass density (413 K, 109900 kPa) of 692.2 ± 2.5 kg/m3, a mass density (413 K, 119900 kPa) of 698 ± 2.5 kg/m3 and a mass density (413 K, 129900 kPa) of 703.6 ± 2.6 kg/m3. The mass density (413 K, 134900 kPa) was 706.2 ± 2.6 kg/m3, the mass density (413 K, 137400 kPa) was 707.4 ± 2.6 kg/m3 and the mass density (433 K, 2100 kPa) was 550.1 ± 2 kg/m3. It also gave a mass density (433 K, 3000 kPa) of 553.9 ± 2 kg/m3, a mass density (433 K, 4000 kPa) of 557.5 ± 2 kg/m3 and a mass density (433 K, 5000 kPa) of 560.7 ± 2 kg/m3. For the same compound, the mass density (433 K, 10000 kPa) was 574.6 ± 2 kg/m3, the mass density (433 K, 20000 kPa) was 595.4 ± 2.1 kg/m3 and the mass density (433 K, 30000 kPa) was 611.5 ± 2.1 kg/m3. The mass density (433 K, 40000 kPa) was 624.3 ± 2.1 kg/m3, the mass density (433 K, 49900 kPa) was 635.2 ± 2.2 kg/m3 and the mass density (433 K, 59900 kPa) was 644.7 ± 2.2 kg/m3. It also gave a mass density (433 K, 69900 kPa) of 653.5 ± 2.3 kg/m3, a mass density (433 K, 79900 kPa) of 661.6 ± 2.3 kg/m3 and a mass density (433 K, 89900 kPa) of 669 ± 2.4 kg/m3. It also gave a mass density (433 K, 99900 kPa) of 676 ± 2.4 kg/m3, a mass density (433 K, 109900 kPa) of 682.3 ± 2.5 kg/m3 and a mass density (433 K, 119900 kPa) of 688.5 ± 2.5 kg/m3. For the same compound, the mass density (433 K, 129900 kPa) was 694.3 ± 2.6 kg/m3, the mass density (433 K, 134900 kPa) was 697.2 ± 2.6 kg/m3 and the mass density (433 K, 137400 kPa) was 698.6 ± 2.6 kg/m3. It also gave a mass density (448 K, 2100 kPa) of 531.1 ± 2 kg/m3, a mass density (448 K, 3000 kPa) of 535.6 ± 2 kg/m3 and a mass density (448 K, 4000 kPa) of 539.8 ± 2 kg/m3. For the same compound, the mass density (448 K, 5000 kPa) was 543.6 ± 2 kg/m3, the mass density (448 K, 10000 kPa) was 560 ± 2 kg/m3 and the mass density (448 K, 20000 kPa) was 583 ± 2.1 kg/m3. It also gave a mass density (448 K, 30000 kPa) of 600.3 ± 2.1 kg/m3, a mass density (448 K, 40000 kPa) of 614.4 ± 2.2 kg/m3 and a mass density (448 K, 49900 kPa) of 626.2 ± 2.2 kg/m3. It also gave a mass density (448 K, 59900 kPa) of 636.6 ± 2.2 kg/m3, a mass density (448 K, 69900 kPa) of 646.2 ± 2.3 kg/m3 and a mass density (448 K, 79900 kPa) of 654.4 ± 2.3 kg/m3. It also gave a mass density (448 K, 89900 kPa) of 661.8 ± 2.4 kg/m3, a mass density (448 K, 99900 kPa) of 669.2 ± 2.4 kg/m3 and a mass density (448 K, 109900 kPa) of 675.8 ± 2.5 kg/m3. The mass density (448 K, 119900 kPa) was 682.3 ± 2.5 kg/m3, the mass density (448 K, 129900 kPa) was 688.4 ± 2.6 kg/m3 and the mass density (448 K, 134900 kPa) was 691.4 ± 2.6 kg/m3. The mass density (448 K, 137400 kPa) was 692.6 ± 2.6 kg/m3, the mass density (468 K, 2100 kPa) was 501.1 ± 2 kg/m3 and the mass density (468 K, 3000 kPa) was 507.8 ± 2 kg/m3. The mass density (468 K, 4000 kPa) was 513.4 ± 2 kg/m3, the mass density (468 K, 5000 kPa) was 518.6 ± 2 kg/m3 and the mass density (468 K, 10000 kPa) was 539.1 ± 2 kg/m3. The mass density (468 K, 20000 kPa) was 566.5 ± 2.1 kg/m3, the mass density (468 K, 30000 kPa) was 586.2 ± 2.1 kg/m3 and the mass density (468 K, 40000 kPa) was 601.3 ± 2.2 kg/m3. For the same compound, the mass density (468 K, 49900 kPa) was 614.2 ± 2.2 kg/m3, the mass density (468 K, 59900 kPa) was 625.3 ± 2.3 kg/m3 and the mass density (468 K, 69900 kPa) was 635.2 ± 2.3 kg/m3. It also gave a mass density (468 K, 79900 kPa) of 644.1 ± 2.4 kg/m3, a mass density (468 K, 89900 kPa) of 652.3 ± 2.4 kg/m3 and a mass density (468 K, 99900 kPa) of 659.9 ± 2.5 kg/m3. It also gave a mass density (468 K, 109900 kPa) of 667.2 ± 2.5 kg/m3, a mass density (468 K, 119900 kPa) of 673.9 ± 2.6 kg/m3 and a mass density (468 K, 129900 kPa) of 679.9 ± 2.6 kg/m3. It also gave a mass density (468 K, 134900 kPa) of 682.8 ± 2.7 kg/m3 and a mass density (468 K, 137400 kPa) of 684.3 ± 2.7 kg/m3.
